Data on 14 compounds can be found in patent publication US20230416261A1, “ETHANEDIAMINE-HETEROCYCLE DERIVATIVES AS INHIBITORS OF PROTEIN ARGININE METHYLTRANSFERASES” (Board of Regents, The University of Texas System, priority 2021, published 2023).

For assay [1], the target named is T1, PRMT1 (Homo sapiens, UniProt Q99873). Briefly: PRMT1 RKO Cellular Target Engagement Assay (In-Cell Western, asymmetric di-methyl arginine). The following applies: RKO cells, 48 hr compound incubation; read-out: RKO IC50 (PRMT-1 Target Engagement). The assay is classed as cell-based. The method, boiled down: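 RKO cells (1,000/well) received 1:3 serially diluted compound for 48 h at 37 °C, then were fixed, permeabilised and immunostained for asymmetric di-methyl arginine by In-Cell Western. The 800 nm antibody signal was normalised to CellTag 700 nm; IC50 from four-parameter logistic fit.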

The subject of another assay is DOHH2 cells. Briefly: DOHH2 Long Term Phenotypic Assay (7 days, Cell Titer-Glo viability). The assay is classed as cell-based. As to conditions: Homo sapiens, DOHH-2, 168 h, Cell Titer-Glo 2.0. The method, boiled down: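 DOHH2 lymphoma cells (250 per well) in RPMI-1640 with 10% FBS were exposed to 1:3 serially diluted compounds for 7 days at 37 °C, 5% CO2. Viability was read by CellTiter-Glo 2.0 luminescence, and IC50 values came from four-parameter logistic fits.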

Assay [2] has as its target T1, PRMT1. Put plainly: PRMT1 Enzymatic Assay (LANCE TR-FRET, methylation of histone H4 at Arg3). The assay is classed as biochemical. Set-up: purchased SignalChem P365-380G. The following applies: PRMT1 1.5 nM, SAM 1 μM, biotinylated histone H4 (1-21) 25 nM; read-out: PRMT-1 IC50. The method, boiled down:
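PRMT1 (1.5 nM) preincubated 15 min with compound at room temperature, then reacted 1 h with 1 μM SAM and 25 nM biotinylated histone H4 (1-21) in 50 mM Hepes pH 8, 1 mM TCEP, 0.003% Tween-20. H4R3me detected by TR-FRET (665/620 nm ratio); IC50 from four-parameter logistic fit.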
(In TR-FRET formats the signal depends on donor and acceptor labels being close together.)

A further assay has as its system PATC53 cells. Put plainly: PATC53 Long Term Phenotypic Assay (14 days, crystal violet viability). The assay is classed as cell-based. The following applies: 336 h. The method, boiled down: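 Cells seeded at 250 per well, allowed 24 h to settle, then treated with 1:3 serial dilutions of compound for 14 days at 37 °C, 5% CO2. Viability measured by crystal violet staining, solubilised in 10% HOAc, absorbance 590 nm; IC50 from four-parameter logistic fit.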

T1 sequence (Q99873 whole entry): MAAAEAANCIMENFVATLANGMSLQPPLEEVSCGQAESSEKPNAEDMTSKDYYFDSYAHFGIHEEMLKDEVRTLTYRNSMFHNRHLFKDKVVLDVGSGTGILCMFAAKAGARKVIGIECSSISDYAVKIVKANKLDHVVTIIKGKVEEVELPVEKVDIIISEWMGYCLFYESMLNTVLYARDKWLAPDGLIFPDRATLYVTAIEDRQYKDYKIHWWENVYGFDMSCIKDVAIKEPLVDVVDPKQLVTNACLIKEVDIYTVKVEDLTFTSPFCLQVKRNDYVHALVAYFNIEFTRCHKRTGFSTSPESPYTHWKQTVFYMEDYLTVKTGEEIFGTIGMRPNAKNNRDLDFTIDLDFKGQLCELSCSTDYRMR

On to `COCC1(COC)CCC(c2c(CN(C)CCN)nn3c2CN(C(=O)C(C)C)CC3)CC1` [Example 43, 1-(2-(((2-aminoethyl)-(methyl)amino)methyl)-3-(4,4-bis(methoxymethyl)-cyclohexyl)-6,7-dihydro-pyrazolo[1,5-a]pyrazin-5(4H)-yl)-2-methylpropan-1-one], for which the 50% inhibitory concentration (IC50) at PRMT1 [1] worked out at 0.46 µM; in the assay with DOHH2 cells, 0.185 µM; on PRMT1 [2], 0.027 µM; with PATC53 cells, 0.149 µM.

In the case of `COCC1(COC)CCC(c2c(CN(C)CCN)nn3c2CN(C(=O)C24CC(C2)C4)CC3)CC1` [Example 44, (2-(((2-aminoethyl)(methyl)-amino)methyl)-3-(4,4-bis-(methoxymethyl)cyclohexyl)-6,7-dihydropyrazolo[1,5-a]-pyrazin-5(4H)-yl)(bicyclo-[1.1.1]pentan-1-yl)methanone], the concentration for half-maximal inhibition (IC50) at PRMT1 [1] was found to be 0.21 µM; with DOHH2 cells, 0.15 µM; on PRMT1 [2], 0.017 µM; in the assay with PATC53 cells it was 0.123 µM.

For the compound `COCC1(COC)CCC(c2c(CN(C)CCN)nn3c2CN(C(=O)C24CC(F)(C2)C4)CC3)CC1` [Example 45, (2-(((2-aminoethyl)(methyl)-amino)methyl)-3-(4,4-bis-(methoxymethyl)cyclohexyl)-6,7-dihydropyrazolo[1,5-a]-pyrazin-5(4H)-yl)(3-fluorobicyclo[1.1.1]pentan-1-yl)methanone], the IC50 on PRMT1 [1] amounted to 0.83 µM; with DOHH2 cells, 0.175 µM; on PRMT1 [2], 0.018 µM; in the assay with PATC53 cells it was 0.178 µM.

Take `COCC1(COC)CCC(c2c(CN(C)CCN)nn3c2CN(C(=O)C2(C(F)(F)F)CC2)CC3)CC1` [Example 46, (2-(((2-aminoethyl)(methyl)-amino)methyl)-3-(4,4-bis-(methoxymethyl)cyclohexyl)-6,7-dihydropyrazolo[1,5-a]-pyrazin-5(4H)-yl)(1-(trifluoro-methyl)cyclopropyl)-methanone]: the IC50 on PRMT1 [1] came to 0.486 µM; in the assay with DOHH2 cells it was 0.288 µM; at PRMT1 [2], 0.029 µM; in the assay with PATC53 cells, 0.294 µM.

For `COCC1(COC)CCC(c2c(CN(C)CCN)nn3c2CN(C(=O)C2(F)CC2)CC3)CC1` [Example 47, (2-(((2-aminoethyl)(methyl)-amino)methyl)-3-(4,4-bis-(methoxymethyl)cyclohexyl)-6,7-dihydropyrazolo[1,5-a]-pyrazin-5(4H)-yl)(1-fluorocyclopropyl)methanone], the IC50 at PRMT1 [1] is 0.671 µM; with DOHH2 cells it was 0.187 µM; at PRMT1 [2], 0.015 µM; in the assay on PATC53 cells, 0.045 µM.

In the case of `CNCCN(C)Cc1nn2c(c1C1CCC(COC)(COC)CC1)CN(C(=O)C1CCC(OC)CC1)CC2` (centres unmarked) [Example 48, (3-(4,4-bis(methoxymethyl)-cyclohexyl)-2-((methyl(2-(methylamino)ethyl)amino)-methyl)-6,7-dihydropyrazolo-[1,5-a]pyrazin-5(4H)-yl)(4-methoxycyclohexyl)-methanone], the IC50 on PRMT1 [1] was 1.41 µM; in the assay with DOHH2 cells, 0.284 µM; on PRMT1 [2] it was 0.156 µM; in the assay with PATC53 cells, 0.247 µM.

For the compound `COCC1(COC)CCC(c2c(CN(C)CCN)nn3c2CN(C(=O)C2(F)CCC2)CC3)CC1` [Example 49, (2-(((2-aminoethyl)(methyl)-amino)methyl)-3-(4,4-bis-(methoxymethyl)cyclohexyl)-6,7-dihydropyrazolo[1,5-a]-pyrazin-5(4H)-yl)(1-fluoro-cyclobutyl)methanone], the 50% inhibitory concentration (IC50) at PRMT1 [1] amounted to 0.329 µM; with DOHH2 cells, 0.166 µM; on PRMT1 [2] it was 0.013 µM; with PATC53 cells, 0.118 µM.

Turning to `COCC1(COC)CCC(c2c(CN(C)CCN)nn3c2CN(C(=O)C2CCC(F)(F)CC2)CC3)CC1` [Example 50, (2-(((2-aminoethyl)(methyl)-amino)methyl)-3-(4,4-bis-(methoxymethyl)cyclohexyl)-6,7-dihydropyrazolo[1,5-a]-pyrazin-5(4H)-yl)(4,4-difluorocyclohexyl)-methanone], the 50% inhibitory concentration (IC50) came to 1.24 µM on PRMT1 [1], 0.171 µM with DOHH2 cells, 0.017 µM at PRMT1 [2] and 0.154 µM with PATC53 cells.

Regarding `CNCCN(C)Cc1nn2c(c1C1CCC(COC)(COC)CC1)CN(C(=O)C1CC(F)(F)C1)CC2` [Example 53, (3-(4,4-bis(methoxymethyl)-cyclohexyl)-2-((methyl(2-(methylamino)ethyl)amino)-methyl)-6,7-dihydropyrazolo-[1,5-a]pyrazin-5(4H)-yl)(3,3-difluorocyclobutyl)-methanone], the IC50 at PRMT1 [1] turned out to be 1.11 µM; with DOHH2 cells, 0.087 µM; at PRMT1 [2] it was 0.068 µM; with PATC53 cells, 0.042 µM.

For the compound `CNCCN(C)Cc1nn2c(c1C1CCC(COC)(COC)CC1)CN(C(=O)C1CC(OC)C1)CC2` (centres unmarked) [Example 58, (3-(4,4-bis(methoxymethyl)-cyclohexyl)-2-((methyl(2-(methylamino)ethyl)amino)-methyl)-6,7-dihydropyrazolo-[1,5-a]pyrazin-5(4H)-yl)(3-methoxycyclobutyl)-methanone], the IC50 at PRMT1 [1] is 0.372 µM; with DOHH2 cells, 0.131 µM; on PRMT1 [2], 0.065 µM; with PATC53 cells, 0.131 µM.

For `CNCCN(C)Cc1nn2c(c1C1CCC(COC)(COC)CC1)CN(C(=O)CC1CCC1)CC2` [Example 60, 1-(3-(4,4-bis(methoxy-methyl)cyclohexyl)-2-((methyl(2-(methylamino)-ethyl)amino)methyl)-6,7-dihydropyrazolo[1,5-a]-pyrazin-5(4H)-yl)-2-cyclobutylethan-1-one], the IC50 was 0.345 µM on PRMT1 [1], 0.082 µM with DOHH2 cells, 0.054 µM on PRMT1 [2] and 0.033 µM with PATC53 cells.

For `COCC1(COC)CCC(c2c(CN(C)CCN)nn3c2CN(C(=O)C2CC(C)(C)C2)CC3)CC1` [Example 61, (2-(((2-aminoethyl)(methyl)-amino)methyl)-3-(4,4-bis-(methoxymethyl)cyclohexyl)-6,7-dihydropyrazolo[1,5-a]-pyrazin-5(4H)-yl)(3,3-dimethylcyclobutyl)-methanone], the IC50 worked out at 1.95 µM at PRMT1 [1], 0.224 µM with DOHH2 cells, 0.023 µM on PRMT1 [2] and 0.068 µM with PATC53 cells.

For `CNCCN(C)Cc1nn2c(c1C1CCC(COC)(COC)CC1)CN(C(=O)C13CC(C)(C1)C3)CC2` [Example 63, (3-(4,4-bis(methoxymethyl)-cyclohexyl)-2-((methyl(2-(methylamino)ethyl)amino)-methyl)-6,7-dihydropyrazolo-[1,5-a]pyrazin-5(4H)-yl)(3-methylbicyclo[1.1.1]pentan-1-yl)methanone], the IC50 at PRMT1 [1] was determined as 0.61 µM; in the assay with DOHH2 cells, 0.067 µM; at PRMT1 [2], 0.044 µM; in the assay with PATC53 cells it was 0.016 µM.

As for `CNCCN(C)Cc1nn2c(c1C1CCC(COC)(COC)CC1)CN(C(=O)C(C)C(F)(F)F)CC2` (centres unmarked) [Example 68, 1-(3-(4,4-bis(methoxy-methyl)cyclohexyl)-2-((methyl(2-(methylamino)-ethyl)amino)methyl)-6,7-dihydropyrazolo[1,5-a]-pyrazin-5(4H)-yl)-3,3,3-trifluoro-2-methylpropan-1-one], the IC50 was 0.128 µM on PRMT1 [1], 0.071 µM with DOHH2 cells, 0.121 µM on PRMT1 [2] and 0.041 µM with PATC53 cells.

For orientation: IC50 means the midpoint of a concentration-inhibition curve.
